From US11071731B2, “Allosteric modulators of the mu opioid receptor” (Chiromics, LLC, priority 2017, dated 2021)
pEC50: −log10 of the molar value.

Experiments:
mu opioid receptor (MOR) [1] = target: T1, mu opioid receptor (MOR) (Homo sapiens, UniProt P35372); test: PathHunter β-arrestin recruitment assay, PAM mode with EC20 endomorphin-1; format: cell-based; conditions: for pEC50: read-out: β-arr. EC50
Method in brief: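 β-Arrestin recruitment to the receptor was tracked by chemiluminescent β-galactosidase activity from complementing fragments (ED on receptor, EA on β-arrestin). Per-compound outputs were EC50 and percent maximal response.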

mu opioid receptor (MOR) [2] = target: T1, mu opioid receptor (MOR); test: Hit Hunter cAMP signaling assay (adenylyl cyclase inhibition), PAM mode with EC20 endomorphin-1; format: cell-based
[3] = maximal response for β-arrestin recruitment
[4] = cAMP EC50, adenylyl cyclase inhibition
[5] = maximal response for adenylyl cyclase inhibition
[6] = adenylyl cyclase inhibition, read-out: cAMP EC50
[7] = maximal response, β-arrestin recruitment
[8] = maximal response, adenylyl cyclase inhibition

T1 sequence (P35372 whole entry, the tested form may be a part): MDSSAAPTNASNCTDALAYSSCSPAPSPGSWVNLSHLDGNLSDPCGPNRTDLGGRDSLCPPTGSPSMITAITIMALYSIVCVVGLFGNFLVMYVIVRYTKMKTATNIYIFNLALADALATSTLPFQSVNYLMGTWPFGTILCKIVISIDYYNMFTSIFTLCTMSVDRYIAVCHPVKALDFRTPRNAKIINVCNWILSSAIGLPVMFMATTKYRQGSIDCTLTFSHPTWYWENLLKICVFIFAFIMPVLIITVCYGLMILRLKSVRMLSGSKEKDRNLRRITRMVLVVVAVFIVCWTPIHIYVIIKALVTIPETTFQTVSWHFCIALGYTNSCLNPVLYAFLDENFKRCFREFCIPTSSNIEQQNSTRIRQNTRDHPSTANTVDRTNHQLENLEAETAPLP

Row | Structure (SMILES) | β-arr Max. Resp. (mu opioid receptor (MOR) [1]; [3]) | pEC50 (mu opioid receptor (MOR) [1]; β-arrestin recruitment) | pEC50 (mu opioid receptor (MOR) [2]; [4]) | cAMP Max. Resp. (mu opioid receptor (MOR) [2]; [5]) | pEC50 (mu opioid receptor (MOR) [2]; [6]) | β-arr Max. Resp. (mu opioid receptor (MOR) [1]; [7]) | cAMP Max. Resp. (mu opioid receptor (MOR) [2]; [8])
1 | Fc1cnc(Cl)nc1N1CCCCC1c1cncnc1 (stereo not shown) [compound 378] | D (D represents a maximal response of < 40%) | > 6.15 | > 6.15 | D (D represents a maximal response of < 40%) |  |  | 
2 | Oc1ncc(F)c(N2CCCCC2c2cccc(C(F)(F)F)c2)n1 (stereo not shown) [compound 349] | D (D represents a maximal response of < 40%) | > 6.15 | > 6.15 | D (D represents a maximal response of < 40%) |  |  | 
3 | CC1CCN(S(=O)(=O)c2ccc(Cl)cc2)C1c1ccc(F)c(C#N)c1 (mixture of isomers) [Compound 93] | E (E represents a maximal response of 40-60%) | 5.68 to 6.15 |  | D (D represents a maximal response of < 40%) | < 5.68 |  | 
4 | C#Cc1cccc(N2CCCCC2c2cccc(C(F)(F)F)n2)c1 (stereo not shown) [compound 451] |  | < 5.68 | < 5.68 |  |  | F (F represents a maximal response of > 60%) | D (D represents a maximal response of < 40%)
5 | N#Cc1ccc(C2CCCCN2S(=O)(=O)c2ccc(Cl)cc2)cc1C(F)(F)F (racemic) [compound 49] | F (F represents a maximal response of > 60%) | < 5.68 |  | F (F represents a maximal response of > 60%) | < 5.68 |  | 
6 | COc1ccc(C2C(F)CCCN2c2nc(Cl)ncc2F)cc1Br (stereo not shown) [compound 212] | F (F represents a maximal response of > 60%) | < 5.68 | < 5.68 | E (E represents a maximal response of 40-60%) |  |  | 
7 | Fc1ccc(C2COCCN2c2nc(Cl)ncc2F)cc1Cl (racemic) [Compound 189] | F (F represents a maximal response of > 60%) | 5.68 to 6.15 |  | F (F represents a maximal response of > 60%) | 5.68 to 6.15 |  | 
8 | COc1cnc(Cl)nc1N1CCCCC1c1cccc(C(F)(F)F)c1 (stereo not shown) [compound 361] | D (D represents a maximal response of < 40%) | > 6.15 | > 6.15 | D (D represents a maximal response of < 40%) |  |  | 
9 | Oc1nccc(N2CCCCC2c2cccc(C(F)(F)F)c2)n1 (stereo not shown) [compound 401] | D (D represents a maximal response of < 40%) | > 6.15 | > 6.15 | D (D represents a maximal response of < 40%) |  |  | 
10 | FC(F)(F)c1cccc(C2CCCCN2c2ccnc(Cl)n2)n1 (stereo not shown) [compound 469] |  | < 5.68 | < 5.68 |  |  | F (F represents a maximal response of > 60%) | D (D represents a maximal response of < 40%)
11 | COc1ccc(C2C(C)CCCN2c2nc(Cl)ncc2F)cc1Br (stereo not shown) [compound 249] | F (F represents a maximal response of > 60%) | < 5.68 |  | E (E represents a maximal response of 40-60%) | < 5.68 |  | 
12 | Cc1cncc(C2CCCCN2c2nc(Cl)ncc2F)c1 (stereo not shown) [compound 330] | D (D represents a maximal response of < 40%) | > 6.15 | > 6.15 | D (D represents a maximal response of < 40%) |  |  | 
13 | Fc1cccc(C2CCCCN2c2ccnc(Cl)n2)n1 (stereo not shown) [compound 259] | D (D represents a maximal response of < 40%) | < 5.68 | < 5.68 | D (D represents a maximal response of < 40%) |  |  | 
